This experiment concerns the target T1, Muscarinic acetylcholine receptor M5 (Homo sapiens, UniProt P08912).
T1 sequence (P08912 whole entry): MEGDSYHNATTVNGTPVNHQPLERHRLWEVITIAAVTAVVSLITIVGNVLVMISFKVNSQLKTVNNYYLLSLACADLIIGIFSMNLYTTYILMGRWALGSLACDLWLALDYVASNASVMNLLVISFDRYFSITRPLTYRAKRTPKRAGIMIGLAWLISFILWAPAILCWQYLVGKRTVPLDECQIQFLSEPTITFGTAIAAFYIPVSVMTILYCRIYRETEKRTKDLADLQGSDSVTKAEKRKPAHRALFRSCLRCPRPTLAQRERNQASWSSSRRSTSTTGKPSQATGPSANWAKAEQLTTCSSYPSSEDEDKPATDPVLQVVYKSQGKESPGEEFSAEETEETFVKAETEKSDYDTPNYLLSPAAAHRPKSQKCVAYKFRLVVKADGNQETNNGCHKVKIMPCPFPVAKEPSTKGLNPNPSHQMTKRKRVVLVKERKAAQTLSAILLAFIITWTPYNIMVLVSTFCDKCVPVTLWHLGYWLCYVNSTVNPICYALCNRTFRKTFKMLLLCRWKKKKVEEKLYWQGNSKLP
Kind of experiment: binding competition at muscarinic M5 – biochemical, [3H]N-methylscopolamine (AID 2192). The settings on record: inactive by the depositor's call.

The structures appear in SMILES notation.

Regarding `COc1ccc(CN2C(=O)C(=O)c3cc(OC(F)(F)F)ccc32)cc1` [VU0238429], it took 1710 nM to reach a half-maximal effect (EC50).
